Measurements from patent US7910574B2, “Treatments for the control of schistosomiasis” (Illinois State University, priority 2007, dated 2011).

Legend:
[1] = system: parasite lactate dehydrogenase; assay: Lactate dehydrogenase control enzyme activity in homogenates of treated worms; assay type: cell-based, Schistosoma mansoni; details: 10 μM, treated worm homogenates
[2] = 10 mg/kg once a day, 5 days, ip; cited from earlier work
[3] = biological target: parasite TGR (thioredoxin reductase activity) (Schistosoma mansoni, UniProt Q962Y6); assay: Thioredoxin reductase activity of TGR in homogenates of treated cultured worms; details: 10 μM, 18 hrs treatment of cultured worms
Procedure: (§1) Freshly perfused adult S. mansoni worms were cultured with 10 μM furoxan or 50 μM NBPPTA. […] The activity of lactate dehydrogenase was monitored as a control enzyme.
(§2) Enzyme assays were performed at 25° C. in 0.1 M potassium phosphate, pH 7.4, 10 mM EDTA. Thioredoxin reductase activity of TGR was determined using either 3 mM 5,5′ dithiobis(2-nitrobenzoic acid) (DTNB, Ellman's reagent) or 16 μM recombinant S. mansoni thioredoxin-1 (Alger et al 2002). One enzyme unit was defined as the NADPH-dependent production of 2 μmol of 2-nitro-5-thiobenzoic acid per minute using ε412 nm=13.6 mM^−1 cm^−1 or the consumption of 1 μmol of NADPH (ε340 nm=6.22 mM^−1 cm^−1) during the first three minutes. Glutathione reductase activity was determined with 100 μM GSH disulfide and 100 μM NADPH by measuring the decrease in A340 nm due to consumption of NADPH (ε340 nm=6.22 mM^−1 cm^−1) during the first three minutes. Activity of the control enzyme lactate dehydrogenase (LDH) was determined with 10 μM sodium pyruvate and 100 μM NADPH. Each assay was done in triplicate and each experiment was repeated three times.
(§3) Compounds were dissolved in dimethylsulfoxide (DMSO) and added at concentrations indicated to freshly perfused worms in RPMI1640 containing 25 mM Hepes, pH 7, 150 units/ml penicillin, 125 μg/ml streptomycin, and 10% fetal calf serum (Cell Grow, Fisher). […]

[4] = biological target: recombinant S. mansoni TGR (Schistosoma mansoni, UniProt Q962Y6); assay: NO release with recombinant SmTGR (ABTS oxidation); assay type: biochemical; details: 10 μM oxadiazole, 15 nM SmTGR, P<0.05
Procedure: Because oxadiazoles are known to release nitric oxide (NO) at physiological levels of thiols, we examined if NO release played a part in their mechanism of action (TGR inhibition and worm killing). […] The NO releasing capability of oxadiazoles was next tested with recombinant S. mansoni TGR enzyme with and without NADPH.
NO release by different oxadiazoles was determined by 2,2′-azino-bis(3-ethylbenzthiazoline-6-sulphonic acid) [ABTS, Sigma] oxidation method [Nims et al, Methods 7, 48-54; 1995]. Different oxadiazoles at 10 μM were incubated at RT for 50 minutes with 15 nM recombinant SmTGR in the presence or absence of 100 μM NADPH. The (oxadiazole+SmTGR/±NADPH) mixture was then added to an aerobic PBS, pH 7.4, containing 5 mM ABTS. The absorbance of the resulting green ABTS^+ were measured at A660. A conversion factor was calculated to adjust the readings from 1 ml reaction to 96-well plate. The concentrations of the released NO were calculated as a percentage of the added oxadiazoles. Each reaction was done in triplicate and the data is the average of three independent experiments. […] The slope of the regression line was calculated and used to recalculate the data at A660 in 200 μl reaction [Nims et al, Methods 7, 48-54; 1995].

[5] = biological target: TGR (Schistosoma mansoni, UniProt Q962Y6); assay: Mode of TGR inhibition; details: through release of NO
[6] = system: murine myeloma cell line SP2/0; assay: Cytotoxicity assay (sulforhodamine B); assay type: cell-based
Procedure: To examine if furoxan is tolerated by mammalian cells, we incubated the murine myeloma cell line SP2/0 with the drugs at given concentrations and monitored cell viability at 24 hr and 120 hr. At 120 hr in 2 μM furoxan ˜25% mortality of myeloma cells was observed compared to 100% mortality of adult S. mansoni worms at the same concentration. Myeloma cells tolerated furoxan at concentrations as high as 100 μM. Differential cytotoxicity of furoxan on the worm survival and myeloma cells were also seen after 24 hrs of drug application.
Cytotoxicity assays were performed using sulforhodamine B to determine cellular protein content. Murine myeloma cell line SP2/0 was cultured in 96-well microtiter plates containing 0.2 ml of RPMI-1640 per well at a cell density of 900 per well at 37° C. in 5% CO2. Cells were treated with drug concentrations (or drug carrier alone) for times as indicated. After treatment, cells were fixed with 10% TCA at 4° C. for 1 hr. Fixed cells were rinsed to remove fixative and then stained in 0.4% (wt/vol) sulforhodamine B (Sigma) in 1% acetic acid for 35 min. After washing with 1% acetic acid and dye extraction in 10 mM Tris (pH 10.5), plates were read at A564 nm. The A564 nm of drug-treated cells was compared to carrier-only-treated cells.

[7] = biological target: parasite TGR (GSH reductase activity) (Schistosoma mansoni, UniProt Q962Y6); assay: Glutathione reductase activity of TGR in homogenates of treated cultured worms; details: 10 μM, 18 hrs treatment of cultured worms
Procedure: as §1, §2, §3

[8] = system: S. mansoni infected mice; assay: In vivo drug treatment of S. mansoni infected mice; design: species or system Schistosoma mansoni; details: for decrease in worm burden vs control infected mice: perfusion day 49
[9] = system: adult S. mansoni worms; assay: microbe, parasite or virus in culture; details: Schistosoma mansoni
[10] = system: adult S. mansoni worms
[11] = system: S. mansoni infections in mice; details: juvenile liver parasites targeted, mouse model; cited from earlier work

Sequence of recombinant S. mansoni TGR (Q962Y6 1-598): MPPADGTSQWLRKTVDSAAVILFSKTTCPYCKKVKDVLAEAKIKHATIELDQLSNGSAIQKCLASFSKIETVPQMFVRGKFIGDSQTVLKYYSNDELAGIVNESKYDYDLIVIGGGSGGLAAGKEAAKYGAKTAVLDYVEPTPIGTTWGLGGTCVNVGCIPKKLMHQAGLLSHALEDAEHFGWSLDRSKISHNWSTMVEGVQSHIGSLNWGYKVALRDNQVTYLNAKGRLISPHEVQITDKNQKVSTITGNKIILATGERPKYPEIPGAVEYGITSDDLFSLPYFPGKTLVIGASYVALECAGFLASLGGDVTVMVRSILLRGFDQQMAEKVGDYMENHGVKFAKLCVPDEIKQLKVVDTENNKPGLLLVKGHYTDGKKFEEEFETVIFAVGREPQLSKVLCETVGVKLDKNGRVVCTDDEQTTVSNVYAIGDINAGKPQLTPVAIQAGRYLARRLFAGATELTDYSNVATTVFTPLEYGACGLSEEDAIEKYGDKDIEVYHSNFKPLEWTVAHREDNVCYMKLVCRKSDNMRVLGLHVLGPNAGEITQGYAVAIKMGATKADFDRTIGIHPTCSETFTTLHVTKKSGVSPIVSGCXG
Sequence of parasite TGR (GSH reductase activity) (Q962Y6 1-598): as above
Sequence of TGR (Q962Y6 1-598): as above
Sequence of parasite TGR (thioredoxin reductase activity) (Q962Y6 1-598): as above

## N#Cc1c(-c2ccccc2)no[n+]1[O-] [Analogue 9]
[1]
  activity of parasite lactate dehydrogenase vs carrier only treated worms: no significant change
[2]
  tolerability in mice: well tolerated
[3]
  reduction of thioredoxin reductase activity of parasite TGR vs carrier control: 83%
[4]; +NADPH
  NO release relative to the other oxadiazoles tested: 10 ×
[4]; −NADPH
  NO release relative to the other oxadiazoles tested: 3 ×
[5]
  mode of inhibition of TGR: time-dependent irreversible inhibition
[6]
  concentration tolerated by myeloma cells: ≤ 100 µM
[6]; 2 μM, 120 hr
  mortality of myeloma cells: ~25%
[7]
  reduction of GSH reductase activity of parasite TGR vs carrier control: 93%
[8]; 10 mg/kg, regardless of lifecycle stage
  reduction in worm burdens, all trials in mice: ≥ 89%
[8]; early stage treatment (treatment 1), total from the eight mice infected
  adult parasites recovered: one
[8]; treatment 1 (skin stage)
  liver egg granulomas: no signs of egg granulomas
[8]; treatment 1 (skin stage), P<0.0001
  hepatomegaly vs control infected mice: reduction of hepatomegaly
[8]; treatment 1: 10 mg/kg ip once daily x5 from day 1 after infection (skin stage)
  decrease in worm burden vs control infected mice: > 99%
[8]; treatment 2 (juvenile liver stage)
  number of liver granulomas vs control infections: considerably reduced
[8]; treatment 2 (juvenile liver stage), P<0.0001
  hepato- and splenomegaly vs control infected mice: dramatic reductions in hepato- and splenomegaly
[8]; treatment 2: 10 mg/kg ip once daily x5 from day 23 (juvenile liver stage)
  decrease in worm burden vs control infected mice: 89%
[8]; treatment 3 (adult stage)
  egg-induced liver granulomas vs control group: greatly reduced number
[8]; treatment 3 (adult stage), P<0.0001
  hepatomegaly vs control group: dramatic reduction in hepatomegaly
[8]; treatment 3: 10 mg/kg ip once daily x5 from day 37 (adult egg laying)
  decrease in worm burden vs control infected mice: 94%
[9]; 24 h, read-out: inhibition of motility of adult parasites
  inhibition at 1.87 µg/mL: 100%
[9]; 120 h, read-out: mortality of adult S. mansoni worms
  mortality at 2 µM: 100%
[10]; 0.38 μg/ml, longer times
  activity against adult parasites: active
[10]; 2 μM
  time to kill worms: 120 h
[10]; 10 μM furoxan with 100 μM carboxy-PTIO
  worm viability with NO scavenger: extended
[10]; 10 μM, within 24 hr, axenically cultured adult worms
  parasite death: 100%

## O=C(C1CCCCC1)N1CC(=O)N2CCc3ccccc3C2C1 (stereo not drawn) [PZQ, praziquantel]
[11]
  reduction in worm burdens: 25-30%
